Values after ≈ are worked out from the molar mass of the structure shown. Where only a bound is given, the exact number is not on record here.

Data set [1] is described as follows: Metabolic stability in human liver microsomes (HLM). To be noted: for microsomal CLint: human. On the technique in general: Liver microsomes are a subcellular fraction often used to study metabolism.
Protocol: Metabolic stability in HLM was measured as described in J Comput Aided Mol Des 2015, 29, 795.
The target in a further data set is hFAP (M39-A757) (Homo sapiens (Human), UniProt Q12884). The experiment in a line: hFAP binding assay (surface plasmon resonance). As to conditions: SPR, 20° C.; for hFAP Binding assay k(off) / hFAP Binding assay k(on): single cycle kinetics; for Kd: n = 1 or geometric mean n = 2-4. (In SPR one partner is held on a chip, and binding of the other changes the refractive index at the surface.)

Data set [2] has as its target Prolyl endopeptidase, Prolyl Oligopeptidase (hPREP) (Homo sapiens (Human), UniProt P48147). As to the kind of experiment: hPrep inhibition assay. It counts as biochemical. To be noted: hPREP 0.6 nM, Z-Gly-Pro-amino-methylcoumarin 50 μM; read-out: PREP IC50. Put shortly: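 Recombinant human PREP at 0.6 nM final with Z-Gly-Pro-AMC substrate at 50 μM final in Tris-HCl pH 7.5, NaCl, Triton X-100, glutathione; 15 min rt preincubation then 20 min rt reaction in dark. AMC fluorescence (ex 340/em 460 nm); IC50 from one-site dose-response fit of % inhibition.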

Data set [3] in a line: Metabolic stability in rat hepatocytes (rHep). As to conditions: n = 1 or geometric mean of n = 2-3.
Data set [4] addresses human Fibroblast activation protein alpha (hFAP) (Homo sapiens (Human), UniProt Q12884). As to the kind of experiment: hFAP inhibition assay (tight binders). Further: hFAP 2.4 pM. It counts as biochemical. As to conditions: Ala-Pro-AMC 20 μM, n = 1 or geometric mean n = 2-6. How it is done:
The plates were read on a PHERAstar® reader with excitation 340 nm and emission 460 nm. Data were analyzed in Genedata Screener®. IC50 values were determined by plotting % inhibition versus log compound concentration and using a one site dose response model.

The mark [5] stands for this setting: HLM CLint, n = 1 or average of n = 2-3.
Where [6] appears, read: kinetic from dmso stock, Solubility, kinetic solubility, n = 1 or average of n = 2-3.

Sequence of hFAP (M39-A757) (Q12884 39-757): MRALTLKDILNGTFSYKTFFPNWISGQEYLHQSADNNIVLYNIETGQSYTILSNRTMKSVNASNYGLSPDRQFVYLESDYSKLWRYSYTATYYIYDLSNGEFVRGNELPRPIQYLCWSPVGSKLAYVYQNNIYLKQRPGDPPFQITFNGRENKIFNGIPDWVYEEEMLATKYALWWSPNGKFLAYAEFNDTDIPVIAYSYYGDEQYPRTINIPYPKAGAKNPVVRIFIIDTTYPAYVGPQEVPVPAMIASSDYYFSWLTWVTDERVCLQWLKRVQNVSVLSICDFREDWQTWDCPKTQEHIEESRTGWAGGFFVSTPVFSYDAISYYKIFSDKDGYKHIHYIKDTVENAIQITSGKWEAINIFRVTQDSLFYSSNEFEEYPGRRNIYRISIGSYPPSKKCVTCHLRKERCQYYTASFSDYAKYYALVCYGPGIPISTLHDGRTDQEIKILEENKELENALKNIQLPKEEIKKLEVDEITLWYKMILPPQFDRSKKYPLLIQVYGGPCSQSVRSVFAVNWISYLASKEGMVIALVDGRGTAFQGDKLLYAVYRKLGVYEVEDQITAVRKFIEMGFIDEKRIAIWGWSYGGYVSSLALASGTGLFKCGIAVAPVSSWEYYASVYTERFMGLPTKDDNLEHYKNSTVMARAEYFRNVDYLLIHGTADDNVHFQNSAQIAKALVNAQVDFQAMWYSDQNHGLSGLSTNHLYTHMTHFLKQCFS
Sequence of human Fibroblast activation protein alpha (hFAP) (Q12884 38-760): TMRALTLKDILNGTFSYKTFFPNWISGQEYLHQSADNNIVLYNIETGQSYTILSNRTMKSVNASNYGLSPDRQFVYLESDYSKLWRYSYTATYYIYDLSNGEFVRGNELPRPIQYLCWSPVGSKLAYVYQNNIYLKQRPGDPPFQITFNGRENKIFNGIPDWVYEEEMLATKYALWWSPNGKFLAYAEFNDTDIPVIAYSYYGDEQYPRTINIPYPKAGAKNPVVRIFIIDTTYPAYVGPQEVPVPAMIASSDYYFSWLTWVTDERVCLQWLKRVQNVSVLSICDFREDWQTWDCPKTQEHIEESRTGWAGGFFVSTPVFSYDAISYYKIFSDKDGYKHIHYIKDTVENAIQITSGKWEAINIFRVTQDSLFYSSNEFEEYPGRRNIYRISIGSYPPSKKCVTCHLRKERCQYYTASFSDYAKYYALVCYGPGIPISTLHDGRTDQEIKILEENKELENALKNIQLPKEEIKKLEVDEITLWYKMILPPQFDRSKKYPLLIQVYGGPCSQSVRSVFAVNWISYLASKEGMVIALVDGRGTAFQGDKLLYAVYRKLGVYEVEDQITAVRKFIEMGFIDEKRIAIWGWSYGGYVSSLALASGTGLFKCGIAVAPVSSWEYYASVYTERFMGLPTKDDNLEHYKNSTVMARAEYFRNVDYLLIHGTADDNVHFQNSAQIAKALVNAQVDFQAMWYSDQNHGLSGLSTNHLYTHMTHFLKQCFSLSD
Sequence of Prolyl endopeptidase, Prolyl Oligopeptidase (hPREP) (P48147 whole entry): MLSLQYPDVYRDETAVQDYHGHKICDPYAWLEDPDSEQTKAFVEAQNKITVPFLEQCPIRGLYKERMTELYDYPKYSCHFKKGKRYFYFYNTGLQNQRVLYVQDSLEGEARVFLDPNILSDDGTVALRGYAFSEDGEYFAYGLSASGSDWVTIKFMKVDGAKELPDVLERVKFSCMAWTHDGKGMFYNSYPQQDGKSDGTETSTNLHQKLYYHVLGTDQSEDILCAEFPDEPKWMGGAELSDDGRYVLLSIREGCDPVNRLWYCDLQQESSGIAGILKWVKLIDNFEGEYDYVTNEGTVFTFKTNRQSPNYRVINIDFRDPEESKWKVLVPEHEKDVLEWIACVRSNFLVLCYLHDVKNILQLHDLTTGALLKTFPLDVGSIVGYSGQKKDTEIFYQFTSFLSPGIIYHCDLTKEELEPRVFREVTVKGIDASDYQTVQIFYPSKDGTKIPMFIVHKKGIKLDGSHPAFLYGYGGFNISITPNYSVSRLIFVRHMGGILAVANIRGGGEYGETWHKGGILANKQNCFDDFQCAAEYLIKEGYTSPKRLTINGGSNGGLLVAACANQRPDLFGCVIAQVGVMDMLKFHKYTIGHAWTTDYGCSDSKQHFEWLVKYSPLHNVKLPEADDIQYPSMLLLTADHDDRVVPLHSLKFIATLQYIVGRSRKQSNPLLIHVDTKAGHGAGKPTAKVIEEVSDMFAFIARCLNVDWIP
Protocol for Kinetic solubility: Kinetic solubility was measured as described in Comput Aided Mol Des 2015, 29, 795.

Broadly, the microsomal CLint is the capacity of the preparation to metabolise the compound, expressed as a volume cleared per time. Read a low microsomal CLint as greater metabolic stability. The Kd is the concentration at which binding is half-saturated. Lower therefore signals a tighter complex. Broadly, the solubility is the dissolved amount per volume that the medium holds. A high value points to much dissolved substance. Broadly, the IC50 is the midpoint of a concentration-inhibition curve. The molecule `C[C@H]1N(c2ccc3nccc(C(=O)NCC(=O)N4CSC[C@H]4C#N)c3c2)CC1(F)F` (mixture of isomers) [Example 159, N-(2-((R)-4-Cyanothiazolidin-3-yl)-2-oxoethyl)-6-((RS)-3,3-difluoro-2-methylazetidin-1-yl)quinoline-4-carboxamide] displayed a microsomal CLint in data set [1] (setting [5]) of 61 µL/min/mg. Moreover, on hFAP (M39-A757), the “hFAP Binding assay k(off)” value was determined as 0.000092 s⁻¹, the “hFAP Binding assay k(on)” value is 2100000 M⁻¹ s⁻¹ and the dissociation constant (Kd) is 0.039 nM. Besides, in “Kinetic solubility” (setting [6]), the solubility came out at 550 µM. For the same molecule, the IC50 in data set [2] was determined as 280 nM. In data set [3], the “rHep CLint” value was 47 μL/min/1E6. Moreover, the IC50 in data set [4] amounted to 0.073 nM.

In data set [1] (setting [5]), `N#C[C@@H]1CSCN1C(=O)CNC(=O)c1ccnc2ccc(-n3ccc4cc(F)ccc43)cc12` [Example 120, (R)—N-(2-(4-Cyanothiazolidin-3-yl)-2-oxoethyl)-6-(5-fluoro-1H-indol-1-yl)quinoline-4-carboxamide] came in with a microsomal CLint of 100 µL/min/mg. Besides, the affinity on hFAP (M39-A757), expressed as Kd, was 0.13 nM. In the data set “Kinetic solubility” (setting [6]), the solubility came to 0.92 µM (≈ 0.423 µg/mL). Also, the IC50 turned out to be 25 nM in data set [2] and 0.15 nM in data set [4]. Besides, the “rHep CLint” value in data set [3] is on record as 27 μL/min/1E6.

`N#C[C@@H]1CSCN1C(=O)CNC(=O)c1ccnc2ccc(-n3ccc(-c4ccccc4)c3)cc12` [Example 218, (R)—N-(2-(4-Cyanothiazolidin-3-yl)-2-oxoethyl)-6-(3-phenyl-1H-pyrrol-1-yl)quinoline-4-carboxamide] returned a microsomal CLint in data set [1] (setting [5]) of 37 µL/min/mg. Also, at hFAP (M39-A757), the “hFAP Binding assay k(off)” value is 0.00032 s⁻¹, the “hFAP Binding assay k(on)” value turned out to be 670000 M⁻¹ s⁻¹ and binding was characterised by a dissociation constant (Kd) of 0.48 nM. Moreover, in “Kinetic solubility” (setting [6]), the solubility is < 0.16 µM. The 50% inhibitory concentration (IC50) in data set [2] was 390 nM. Also, the “rHep CLint” value in data set [3] is 18 μL/min/1E6. The half-inhibitory concentration (IC50) in data set [4] was determined as 0.068 nM.

Regarding `N#C[C@@H]1CSCN1C(=O)CNC(=O)c1ccnc2ccc(N3CCOC[C@@H]3C(F)(F)F)cc12` (single isomer, unassigned) [Example 85, N-(2-((R)-4-Cyanothiazolidin-3-yl)-2-oxoethyl)-6-((R*)-3-(trifluoromethyl)-morpholino)quinoline-4-carboxamide], in data set [1] (n = 1 or average of n = 2-3), the “HLM CLint” value was 260 µL/min/mg. Further, at hFAP (M39-A757), the “hFAP Binding assay k(off)” value is 0.00011 s⁻¹, the “hFAP Binding assay k(on)” value came to 4000000 M⁻¹ s⁻¹ and binding was characterised by a dissociation constant (Kd) of 0.032 nM. In “Kinetic solubility” (kinetic solubility, n = 1 or average of n = 2-3), this molecule returned a solubility of 800 µM (≈ 384 µg/mL). Moreover, the IC50 in data set [2] stood at 720 nM. In addition, the “rHep CLint” value in data set [3] was 35 μL/min/1E6. This molecule showed an IC50 in data set [4] of 0.087 nM.

Take `Cc1cc2nccc(C(=O)NCC(=O)N3CSC[C@H]3C#N)c2cc1N1CCOCC1` [Example 10, (R)—N-(2-(4-Cyanothiazolidin-3-yl)-2-oxoethyl)-7-methyl-6-morpholino-quinoline-4-carboxamide]: in data set [1] (setting [5]), the microsomal CLint stood at 130 µL/min/mg. In addition, at hFAP (M39-A757), the “hFAP Binding assay k(off)” value stood at 0.000056 s⁻¹, the “hFAP Binding assay k(on)” value was 370000 M⁻¹ s⁻¹ and binding was put at a Kd of 0.15 nM. Besides, the concentration in solution in the data set “Kinetic solubility” (setting [6]) (solubility) was 270 µM (≈ 115 µg/mL). Also, the IC50 in data set [2] was found to be 940 nM. In addition, the “rHep CLint” value in data set [3] is reported as 41 μL/min/1E6. Also, in data set [4], the IC50 was 0.054 nM.

`COC[C@H]1[C@H](C)OCCN1c1ccc2nccc(C(=O)NCC(=O)N3CSC[C@H]3C#N)c2c1` [Example 96, N-(2-((R)-4-Cyanothiazolidin-3-yl)-2-oxoethyl)-6-((2S,3S)-3-(methoxymethyl)-2-methylmorpholino)quinoline-4-carboxamide] showed an intrinsic metabolic clearance (microsomal CLint) in data set [1] (setting [5]) of 71 µL/min/mg. On hFAP (M39-A757), the “hFAP Binding assay k(off)” value came to 0.00022 s⁻¹, the “hFAP Binding assay k(on)” value turned out to be 4000000 M⁻¹ s⁻¹ and binding was characterised by a dissociation constant (Kd) of 0.067 nM. Further, in the data set “Kinetic solubility” (setting [6]), the solubility is > 1000 µM. For the same molecule, the IC50 in data set [2] stood at 880 nM. Also, in data set [3], the “rHep CLint” value amounted to 15 μL/min/1E6. This molecule returned an IC50 in data set [4] of 0.17 nM.

In data set [1] (setting [5]), `N#C[C@@H]1CSCN1C(=O)CNC(=O)c1ccnc2ccc(-n3ccc4c(F)cc(F)cc43)cc12` [Example 119, (R)—N-(2-(4-Cyanothiazolidin-3-yl)-2-oxoethyl)-6-(4,6-difluoro-1H-indol-1-yl)quinoline-4-carboxamide] gave a microsomal CLint of 68 µL/min/mg. For the same molecule, at hFAP (M39-A757), the “hFAP Binding assay k(off)” value is 0.00031 s⁻¹, the “hFAP Binding assay k(on)” value is 610000 M⁻¹ s⁻¹ and the dissociation constant (Kd) came out at 0.39 nM. In addition, the solubility in “Kinetic solubility” (setting [6]) turned out to be 1 µM (≈ 0.477 µg/mL). Further, the IC50 in data set [2] amounted to 76 nM. The “rHep CLint” value in data set [3] is 27 μL/min/1E6. Moreover, in data set [4], the IC50 was found to be 0.16 nM.

In turn, `N#C[C@@H]1CSCN1C(=O)CNC(=O)c1ccnc2ccc(N3CC4(CCCC4(F)F)C3)cc12` [Example 141, (R)—N-(2-(4-Cyanothiazolidin-3-yl)-2-oxoethyl)-6-(5,5-difluoro-2-azaspiro[3.4]octan-2-yl)quinoline-4-carboxamide] had a microsomal CLint in data set [1] of 54 µL/min/mg. At hFAP (M39-A757), the “hFAP Binding assay k(off)” value was 0.000078 s⁻¹, the “hFAP Binding assay k(on)” value amounted to 1400000 M⁻¹ s⁻¹ and binding was characterised by a dissociation constant (Kd) of 0.062 nM. Besides, the solubility in the data set “Kinetic solubility” (kinetic from dmso stock) was determined as 140 µM (≈ 66 µg/mL). The IC50 in data set [2] came to 460 nM. The “rHep CLint” value in data set [3] was determined as 11 μL/min/1E6. Half-maximal inhibition in data set [4] (IC50) required 0.059 nM.

As for `N#C[C@@H]1CSCN1C(=O)CNC(=O)c1ccnc2ccc(N3CC4(CCCC4)C3)cc12` [Example 139, (R)—N-(2-(4-Cyanothiazolidin-3-yl)-2-oxoethyl)-6-(2-azaspiro[3.4]octan-2-yl)quinoline-4-carboxamide], in data set [1], the microsomal CLint is 72 µL/min/mg. The molecule also returned a Kd at hFAP (M39-A757) of 0.015 nM. The molecule also returned a solubility in the data set “Kinetic solubility” (kinetic from dmso stock) of 50 µM (≈ 21.8 µg/mL). Also, the IC50 in data set [2] stood at 1000 nM; in data set [4] it was 0.32 nM. Moreover, in data set [3], the “rHep CLint” value turned out to be 13 μL/min/1E6.

In the case of `N#C[C@@H]1CSCN1C(=O)CNC(=O)c1ccnc2ccc(-n3cc4c(n3)CCCC4)cc12` [Example 115, (R)—N-(2-(4-Cyanothiazolidin-3-yl)-2-oxoethyl)-6-(4,5,6,7-tetrahydro-2H-indazol-2-yl)quinoline-4-carboxamide], in data set [1] (setting [5]), the microsomal CLint was 120 µL/min/mg. Binding at hFAP (M39-A757) was put at a Kd of 0.11 nM. Also, in “Kinetic solubility” (setting [6]), the concentration in solution (solubility) was 0.59 µM (≈ 0.263 µg/mL). Moreover, the IC50 in data set [2] worked out at 130 nM; in data set [4], 0.04 nM. For the same molecule, in data set [3], the “rHep CLint” value is listed as 20 μL/min/1E6.

In data set [1] (setting [5]), `N#C[C@@H]1CSCN1C(=O)CNC(=O)c1ccnc2ccc(N3CC(CC(F)F)C3)cc12` [Example 144, (R)—N-(2-(4-Cyanothiazolidin-3-yl)-2-oxoethyl)-6-(3-(2,2-difluoroethyl)-azetidin-1-yl)quinoline-4-carboxamide] came in with a microsomal CLint of 14 µL/min/mg. Further, on hFAP (M39-A757), the “hFAP Binding assay k(off)” value is 0.00051 s⁻¹, the “hFAP Binding assay k(on)” value was determined as 9100000 M⁻¹ s⁻¹ and the Kd is 0.049 nM. This molecule also returned a solubility in “Kinetic solubility” (setting [6]) of 18 µM (≈ 8.02 µg/mL). Moreover, the IC50 in data set [2] came to 460 nM. Moreover, the “rHep CLint” value in data set [3] came out at 7 μL/min/1E6. For the same molecule, the IC50 in data set [4] worked out at 0.081 nM.

Take `CC1(C)CN(c2ccc3nccc(C(=O)NCC(=O)N4CSC[C@H]4C#N)c3c2)CCC1(F)F` [Example 38, (R)—N-(2-(4-Cyanothiazolidin-3-yl)-2-oxoethyl)-6-(4,4-difluoro-3,3-dimethylpiperidin-1-yl)quinoline-4-carboxamide]: the microsomal CLint in data set [1] (setting [5]) is > 300 µL/min/mg. Further, at hFAP (M39-A757), the “hFAP Binding assay k(off)” value was 0.000078 s⁻¹; the “hFAP Binding assay k(on)” value was found to be 520000 M⁻¹ s⁻¹; the affinity, expressed as Kd, was 0.11 nM. The molecule further yielded a solubility in “Kinetic solubility” (setting [6]) of 33 µM (≈ 15.6 µg/mL). Also, in data set [2], the half-inhibitory concentration (IC50) was 480 nM. For the same molecule, the “rHep CLint” value in data set [3] was >300 μL/min/1E6. Further, the IC50 in data set [4] is 0.1 nM.

For the origin of these results see US20230312550A1, “N-(2-(4-CYANOTHIAZOLIDIN-3-YL)-2-OXOETHYL)-QUINOLINE-4-CARBOXAMIDES” (AstraZeneca AB, priority 2020, published 2023).
